Assay results as given in PubChem BioAssay (NCI).
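Step 1: Grow cells in 96-well plates. Step 2: Expose to compound for 48 hours at 5 concentrations. Step 3: Interpolate endpoints linearly; if unreached, use highest concentration. TGI marks complete inhibition of growth.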

Experiments:
Assay in all cases: NCI tumour cell line growth inhibition, 48 h
DLD-1 colon = system: DLD-1 colon
HOP-18 NSCLC = system: HOP-18 NSCLC
P388 leukemia = system: P388 leukemia
P388/ADR leukemia = system: P388/ADR leukemia
SN12K1 renal = system: SN12K1 renal
SNB-78 CNS = system: SNB-78 CNS
XF 498 CNS = system: XF 498 CNS
MDA-MB-231 breast = system: MDA-MB-231 breast
PC-3 prostate = system: PC-3 prostate
HS 578T breast = system: HS 578T breast
LXFL 529 NSCLC = system: LXFL 529 NSCLC
RXF-631 renal = system: RXF-631 renal

| SMILES | TGI (DLD-1 colon) | TGI (HOP-18 NSCLC) | TGI (P388 leukemia) | TGI (P388/ADR leukemia) | TGI (SN12K1 renal) | TGI (SNB-78 CNS) | TGI (XF 498 CNS) | TGI (MDA-MB-231 breast) | TGI (PC-3 prostate) | TGI (HS 578T breast) | TGI (LXFL 529 NSCLC) | TGI (RXF-631 renal) |
| --- | --- | --- | --- | --- | --- | --- | --- | --- | --- | --- | --- | --- |
| Nc1c(C(=O)Nc2ccc(C3=NCCN3)cc2)cccc1C(=O)Nc1ccc(C2=NCCN2)cc1 | > 100 µM | > 100 µM | > 100 µM | > 100 µM | > 100 µM | > 100 µM | > 100 µM |  |  |  |  |  |
| N=[N+]=CC(=O)CCC(NC(=O)C(CCC(=O)C=[N+]=N)NC(=O)CCC(N)C(=O)O)C(=O)O (stereo not given) | > 100 µM | > 100 µM | > 100 µM | > 100 µM | > 100 µM | > 100 µM | > 100 µM |  |  |  |  |  |
| COC(=O)c1cc2cc3c(c(O)c2c(=O)o1)O[C@@]1(Oc2c(O)c4c(c(O)c2[C@H]1OC1CC(OC)C(O)C(C)O1)C(=O)C=C(OC)C4=O)[C@H](O)C3 (stereo not given in full) |  |  |  |  |  |  |  | 5.95 µM | 12.2 µM |  |  |  |
| CN(Cc1cccc2ccccc12)Cc1cccc2ccccc12 |  |  |  |  |  |  |  | 64.1 µM | 57.7 µM | > 100 µM |  |  |
| C1CSC(=[N+]2CC[N+](=C3SCCS3)CC2)S1 | > 100 µM | > 100 µM |  |  |  | > 100 µM |  |  |  |  | > 100 µM | > 100 µM |
| C/C(=N\NC(=S)N1CCN(C)CC1)c1nc2ncccc2[nH]1 |  |  |  |  |  |  |  | > 100 µM | > 100 µM | > 100 µM |  |  |
| CC(C)(C)NCC(O)c1ccc(O)c(CO)n1 (stereo not given) |  |  |  |  |  |  |  | > 100 µM | > 100 µM | > 100 µM |  |  |
| CC(C)(C)C(=O)CP(=O)(O)O |  |  |  |  |  |  |  | > 100 µM | > 100 µM | > 100 µM |  |  |
| OC(c1cc(-c2ccc(Cl)cc2)nc2ccccc12)C1CCCCN1 (stereo not given) |  |  |  |  |  |  |  | 3.58 µM | 3.79 µM | 4.34 µM |  |  |
| C/C=C(\C)C(=O)OC1C(C)=C2C(C1OC(=O)CCCC)C(C)(OC(C)=O)CC(OC(=O)CCCC)C1(O)C2OC(=O)C1(C)O (stereo not given) |  |  |  |  |  |  |  | 5.87 µM | > 37.5 µM | > 100 µM |  |  |
| C[n+]1c2ccccc2c(NC(CS)C(=O)O)c2ccccc21 (stereo not given) | > 100 µM | > 100 µM |  |  |  | > 100 µM | 33.9 µM |  |  |  | > 100 µM | > 100 µM |
| Nc1ccc(S(=O)(=O)Nc2ccc(Nc3c4ccccc4nc4ccccc34)cc2)cc1 | 16.6 µM | 16.1 µM |  |  |  | 26.2 µM | 20.6 µM | 22.1 µM | 17.4 µM | 54.7 µM | 20.6 µM | 10.8 µM |
| O=C(O)NCC1CCCCC1 (tested in a mixture with another compound) |  |  |  |  |  |  |  | 44.9 µM | 46.4 µM |  |  |  |
| O=C(NC1C=Nc2ccc([N+](=O)[O-])cc2NC1=O)c1cc(Cl)cc([N+](=O)[O-])c1 (stereo not given) | > 100 µM |  |  |  |  | > 100 µM | > 100 µM |  |  |  | > 100 µM |  |
